The record followed here is patent publication US20250041179A1, “ANTIMICROBIAL COMBINATIONS” (SYMRISE AG, priority 2021, published 2025).

The test system of test [1] is A. brasiliensis. Briefly: Preservative efficacy test (Ph. Eur., adjusted inoculum) in shampoo formulation. Type of test: cell-based, Aspergillus brasiliensis. The method, then:
(§1) Preservative efficacy tests were performed according to the European Pharmacopoeia with adjusted inoculation numbers (10^6-10^7 cells of suitable bacteria or fungi). Material was tested in predesigned standardised cosmetic formulations either as oil-in-water anionic emulsion (Table 2), shampoo (Table 3), or wet wipe solution (Table 4). The antimicrobial actives were dissolved or mixed with the standardised cosmetic formulations, leading to the indicated test concentrations (in w/w %, cf. Tables 5 to 12 below). To determine synergistic indices, raw values for bacterial of fungal colony counts were used.
(§2) [formula] • where • SI is the synergism index according to Kull • CA is the cell count for substance A (also “count A”) • CB is the cell count for substance B (also “count B”) • Cmixture is the cell count for the mixture of substance A and B (also “count mix”) • PA is the proportion of the substance A in the mixture in relation to the concentration tested alone • PB is the proportion of the substance B in the mixture in relation to the concentration tested alone

Test [2] relates to E. coli. The test can be described thus: Preservative efficacy test (Ph. Eur., adjusted inoculum) in O/W anionic emulsion. The format is cell-based, Escherichia coli. Particulars: substance alone 0.5% w/w. The method, then:
(§3) Material was tested in predesigned standardised cosmetic formulations either as oil-in-water anionic emulsion (Table 2), shampoo (Table 3), or wet wipe solution (Table 4). The antimicrobial actives were dissolved or mixed with the standardised cosmetic formulations, leading to the indicated test concentrations (in w/w %, cf. […] To determine synergistic indices, raw values for bacterial of fungal colony counts were used. [table] […] Steinberg D. C. (2000): Measuring Synergy. In Cosmetics & Toiletries, 115) was used: […]

Test [3] deals with S. aureus. Described as above. Particulars: substance alone 0.5% w/w. The format is cell-based, Staphylococcus aureus. The method, then: as §3
Test [4] concerns C. albicans. Briefly: Preservative efficacy test (Ph. Eur., adjusted inoculum) in shampoo formulation. The format is cell-based, Candida albicans. Conditions: substance alone 0.5% w/w. Here is the method:
as §1, §2

Test [5] has as its system P. aeruginosa. The description is as above. Type of test: cell-based, Pseudomonas aeruginosa. Particulars: substance alone 0.5% w/w. Here is the method: as §1, §2
The test system of test [6] is E. coli. The test is described as above. The format is cell-based, Escherichia coli. Particulars: substance alone 0.5% w/w. The method, then:
as §1
(§4) To calculate the synergism between the indicated antimicrobial actives (cf. preservative efficacy tests below), the Kull equation (Kull et al., Applied Microbiology 1961, 9 (6), pp. 538-541, DOI: 10.1128/am.9.6.538-541.1961.; Steinberg D. C. (2000): Measuring Synergy. In Cosmetics & Toiletries, 115) was used:
as §2

Test [7] relates to S. aureus. Described as above. The format is cell-based, Staphylococcus aureus. Particulars: substance alone 0.2% w/w. The method, then:
as §1, §4, §2

On to `CC(C)(C)C(=O)C(Oc1ccc(Cl)cc1)n1ccnc1` (centres unmarked) [Climbazole, climbazole, reference compound], for which, in test [1] (substance alone 0.5% w/w), the “Absolute cell counts 2 days” value was determined as 1.50E+05, the “Relative cell counts 2 days” value is reported as 0.0366, the “Absolute cell counts 7 days” value worked out at 6.20E+04 and the “Relative cell counts 7 days” value came to 0.0151. For the same compound, in test [1] (substance alone 0.5% w/w), the “Absolute cell counts 14 days” value is reported as 5.90E+04, the “Relative cell counts 14 days” value worked out at 0.0144, the “Absolute cell counts 28 days” value is reported as 4.60E+04 and the “Relative cell counts 28 days” value is recorded as 0.0112.

With `Cc1cc(CC(C)CC(C)(C)C)n(O)c(=O)c1.NCCO` (centres unmarked) [Piroctone olamine, piroctone olamine, reference compound], the “Absolute cell counts 2 days” value is reported as 1 in test [2] (2 days), 2.50E+06 in test [3] (2 days), 1 in test [4] and 1 in test [5]. Moreover, the “Relative cell counts 2 days” value is reported as 0.0000 in test [2] (2 days), 0.7813 in test [3] (2 days), 0.0000 in test [4] and 0.0000 in test [5]. Besides, the “Absolute cell counts 7 days” value in test [2] (7 days) worked out at 1; in test [3] (7 days), 3.80E+04; in test [4], 1; in test [5], 1. The “Relative cell counts 7 days” value was 0.0000 in test [2] (7 days), 0.0119 in test [3] (7 days), 0.0000 in test [4] and 0.0000 in test [5]. Besides, the “Absolute cell counts 14 days” value in test [2] (14 days), in test [3] (14 days), in test [4] and in test [5] was 1 each time. For the same compound, the “Relative cell counts 14 days” value in test [2] (14 days), in test [3] (14 days), in test [4] and in test [5] was 0.0000 each time. In addition, the “Absolute cell counts 28 days” value in test [2] (28 days), in test [3] (28 days), in test [4] and in test [5] was 1 throughout. Also, the “Relative cell counts 28 days” value in test [2] (28 days), in test [3] (28 days), in test [4] and in test [5] was 0.0000 each time.

As to `C/C=C/C=C/C(=O)[O-].[K+]` [Potassium Sorbate, potassium sorbate], in test [1] (substance alone 0.5% w/w), the “Absolute cell counts 2 days” value is 1.40E+04, the “Relative cell counts 2 days” value is recorded as 0.0034, the “Absolute cell counts 7 days” value was determined as 1 and the “Relative cell counts 7 days” value was determined as 0.0000. Moreover, in test [1] (substance alone 0.5% w/w), the “Absolute cell counts 14 days” value was found to be 1, the “Relative cell counts 14 days” value is given as 0.0000, the “Absolute cell counts 28 days” value is 1 and the “Relative cell counts 28 days” value amounted to 0.0000.

For the compound `O=C(O)c1ccccc1O` [Salicylic Acid, salicylic acid, reference compound], in test [6], the “Absolute cell counts 2 days” value was determined as 9.50E+03, the “Relative cell counts 2 days” value came to 0.0021, the “Absolute cell counts 7 days” value was determined as 7.20E+03 and the “Relative cell counts 7 days” value is on record as 0.0016. For the same compound, in test [6], the “Absolute cell counts 14 days” value came to 1, the “Relative cell counts 14 days” value came out at 0.0000, the “Absolute cell counts 28 days” value is listed as 1 and the “Relative cell counts 28 days” value was determined as 0.0000. In test [4], the “Absolute cell counts 2 days” value came to 7.30E+01, the “Relative cell counts 2 days” value was 0.0000, the “Absolute cell counts 7 days” value is 1 and the “Relative cell counts 7 days” value came to 0.0000. In test [4], the “Absolute cell counts 14 days” value amounted to 1, the “Relative cell counts 14 days” value is on record as 0.0000, the “Absolute cell counts 28 days” value came out at 1 and the “Relative cell counts 28 days” value is 0.0000. Besides, in test [5], the “Absolute cell counts 2 days” value is 1, the “Relative cell counts 2 days” value worked out at 0.0000, the “Absolute cell counts 7 days” value was 1 and the “Relative cell counts 7 days” value is on record as 0.0000. In test [5], the “Absolute cell counts 14 days” value worked out at 1, the “Relative cell counts 14 days” value came out at 0.0000, the “Absolute cell counts 28 days” value was found to be 1 and the “Relative cell counts 28 days” value turned out to be 0.0000.

As to `O=C([O-])c1ccccc1.[Na+]` [Sodium Benzoate, sodium benzoate], in test [6], the “Absolute cell counts 2 days” value is 8.70E+05, the “Relative cell counts 2 days” value is 0.1933, the “Absolute cell counts 7 days” value came to 9.50E+05 and the “Relative cell counts 7 days” value was determined as 0.2111. Moreover, in test [6], the “Absolute cell counts 14 days” value is 4.20E+05, the “Relative cell counts 14 days” value was determined as 0.0933, the “Absolute cell counts 28 days” value turned out to be 2.40E+04 and the “Relative cell counts 28 days” value is 0.0053. In test [7] (2 days), the “Absolute cell counts 2 days” value is 2.20E+04 and the “Relative cell counts 2 days” value came to 0.0037. For the same compound, in test [7] (7 days), the “Absolute cell counts 7 days” value is recorded as 1 and the “Relative cell counts 7 days” value came out at 0.0000. In addition, in test [7] (14 days), the “Absolute cell counts 14 days” value was found to be 1 and the “Relative cell counts 14 days” value is recorded as 0.0000. Also, in test [7] (28 days), the “Absolute cell counts 28 days” value was found to be 1 and the “Relative cell counts 28 days” value was found to be 0.0000. Besides, in test [1] (substance alone 0.2% w/w), the “Absolute cell counts 2 days” value worked out at 8.00E+04, the “Relative cell counts 2 days” value is 0.0800, the “Absolute cell counts 7 days” value was 1.10E+04 and the “Relative cell counts 7 days” value is on record as 0.0110. In test [1] (substance alone 0.2% w/w), the “Absolute cell counts 14 days” value is on record as 3.30E+02, the “Relative cell counts 14 days” value worked out at 0.0003, the “Absolute cell counts 28 days” value stood at 3.20E+02 and the “Relative cell counts 28 days” value is recorded as 0.0003. For the same compound, in test [5], the “Absolute cell counts 2 days” value came out at 9.60E+03, the “Relative cell counts 2 days” value amounted to 0.0026, the “Absolute cell counts 7 days” value amounted to 1 and the “Relative cell counts 7 days” value worked out at 0.0000. In test [5], the “Absolute cell counts 14 days” value is recorded as 1, the “Relative cell counts 14 days” value was 0.0000, the “Absolute cell counts 28 days” value came out at 1 and the “Relative cell counts 28 days” value amounted to 0.0000.
